Experimental findings from article PMC6208323 (Cell chemical biology, 2018) are described below.

Read-outs that look alike come from different tables or passages of the source.

Usually Kd stands for the equilibrium constant for the complex coming apart. The term stoichiometry N denotes a count of units in the complex or per binding partner.

One experiment addresses (UniProt S2XVS8). Description: fluorescence quenching. Type of experiment: binding, Streptomyces sp. HGB0020.
In another experiment the target is TnmS1 (Streptomyces sp. CB03234, UniProt A0A125SA24). Description: fluorescence quenching. Type of experiment: binding.
In another experiment the target is CBFG_04671 (Clostridium pacaense, UniProt A0ABV1D2N3). Nature of the experiment: fluorescence quenching. It is filed as binding.
The target in the next experiment is TnmS3 (Streptomyces sp. CB03234, UniProt A0A125SA29). Description: fluorescence quenching. It is filed as binding.
A further experiment has as its target TnmS2 (Streptomyces sp. CB03234, UniProt A0A125SA26). Description: fluorescence quenching. Type of experiment: binding.
The target of experiment [1] is TnmS3 (Streptomyces sp. CB03234). Description: SEC.
For experiment [2], the target named is TnmS1 (Streptomyces sp. CB03234). Description: SEC. (In general: In gel filtration, larger molecules generally elute earlier.)
The target in experiment [3] is TnmS2 (Streptomyces sp. CB03234). Nature of the experiment: SEC.
Where [4] appears, read: 20 mM MOPS pH 7.0, 28 °C, 2 μM protein, ligand in DMSO.

(UniProt S2XVS8), sequence (S2XVS8 1-128): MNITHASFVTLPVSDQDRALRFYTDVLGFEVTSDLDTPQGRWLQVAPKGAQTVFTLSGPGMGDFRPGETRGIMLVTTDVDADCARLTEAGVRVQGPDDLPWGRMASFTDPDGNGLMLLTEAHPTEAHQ

`COc1ccc2c(c1O)C(=O)c1c3c(cc(O)c1C2=O)[C@@]12O[C@@]1([C@@H](C)O)[C@H](C#C/C=C\C#C[C@H]2O)N3` [TNM A]: the Kd on (UniProt S2XVS8) was determined as 164 ± 23 nM; at TnmS1 it was 163 ± 17 nM; on CBFG_04671, 855 ± 66 nM; on TnmS3 it was 108 ± 13 nM; at TnmS2, 246 ± 36 nM.
For the molecule TNM C, the figures for the Kd at TnmS1 (setting [4]), at TnmS3 (setting [4]) and at TnmS2 (setting [4]) were 350 ± 41 nM, 215 ± 27 nM and 361 ± 65 nM, respectively.
Molecule TnmS3 (natural protein) returned a stoichiometry N in experiment [1] of 2.
The molecule TnmS1 (natural protein) showed a stoichiometry N in experiment [2] of 2.
Regarding TnmS2 (natural protein), in experiment [3], the stoichiometry N stood at 2.
As for `Cc1cc2nc3c(=O)[nH]c(=O)nc-3n(C[C@H](O)[C@H](O)[C@H](O)CO)c2cc1C` [riboflavin], the Kd worked out at 84100 nM on TnmS1, 1100 nM on TnmS3 and 59500 nM on TnmS2.
